{"source": "patent US20230414602A1", "about": "“PHARMACEUTICAL COMPOSITION COMPRISING INSOLUBLE CAMPTOTHECIN COMPOUND-CONTAINING NANOPARTICLE FOR TREATMENT OF CANCER AND COMBINATION THERAPY THEREOF” (SNBioScience Inc., priority 2020, published 2023)", "key": {"[1]": {"assay": "Body weight of MDA-MB-231 xenograft mice (Example 4)", "format": "in vivo, BALB/c nu/nu male mice", "procedure": "(§1) Tumor volume and body weight were measured twice a week (intervals of 3 or 4 days) from the time of grouping to the end of the test, and a tumor growth curve was constructed from the start of drug administration to the end of the test."}, "MDA-MB-231": {"tested_on": "MDA-MB-231", "assay": "Breast cancer MDA-MB-231 xenograft, tumor volume and TGI (Example 4)", "format": "in vivo, BALB/c nu/nu male mice", "settings": "docetaxel 5->15 mg/kg, SNB-101 20 mg/kg (as SN-38), i.v. Q1W x 6", "procedure": "(§2) The thawed cells were cultured for one week or longer, with passages every two or three days. The cells were assayed for viability (trypan blue) and infection with bacteria and yeasts (cell images) and mycoplasma (MycoAlert Mycoplasma detection kit).\nas §1\n(§3) As of the end of the experiment, relative tumor growth inhibition (TGI) to the vehicle was calculated using the following equation.\nTumor growth inhibition (TGI) (%)={1−(ΔT/ΔC)}×100 Equation 2"}, "A549": {"tested_on": "A549", "assay": "Lung cancer A549 xenograft, tumor volume and TGI (Example 4)", "format": "in vivo, BALB/c nu/nu male mice", "settings": "docetaxel 5->10 mg/kg, SNB-101 20 mg/kg (as SN-38), i.v. Q1W x 5", "procedure": "as §2, §1, §3\nTumor growth inhibition (TGI)(%)={1−(ΔT/ΔC)}×100 Equation 2"}, "[2]": {"assay": "Body weight of A549 xenograft mice (Example 4)", "format": "in vivo, BALB/c nu/nu male mice", "procedure": "as §1"}, "AsPC-1 cells": {"tested_on": "AsPC-1 cells", "assay": "AsPC-1 pancreatic cancer xenograft, tumor volume and tumor weight (Example 2)", "settings": "excised day 22; nab-paclitaxel 5, irinotecan HCl 50, SNB-101 low dose 10/15.9 mg/kg/day", "quoted_text": "As a pancreatic cancer cell line for a pancreatic cancer xenograft model, AsPC-1 was used. AsPC-1 cells are aggressive cells and are known to have resistance to gemcitabine."}, "[3]": {"assay": "Body weight of AsPC-1 xenograft mice (Example 2)", "format": "in vivo, BALB/c nu/nu male mice"}, "[4]": {"tested_on": "HT-29 colorectal cancer cells", "assay": "HT-29 colorectal cancer xenograft, tumor volume (Example 5)", "format": "in vivo, BALB/c nude mice", "text": "A total of 150 BALB/c nude mice (5-week-old males) were obtained and acclimatized for about one week before transplantation of HT-29 colorectal cancer cells into the subcutaneous area of the right hip. […] after transplantation, 50 mice were selected on the basis of the tumor volume and classified into five groups of 10.\n[…] after transplantation of the HT-29 colorectal cancer cells, mice were selected based on the tumor volume and randomly divided into 5 groups (10 mice/group). The drug administration group was set as in Table 13, below.\nAn autopsy was performed on day 28. A 5% dextrose solution used as a vehicle for the control was equally administered at a dose of 10 mL/kg.\nTest results are expressed as mean±S.D. in Table 14, below."}}, "note": "Structures can show the parent of a compound that is named as a salt.", "data": [{"compound": "CC(=O)O[C@@]12CO[C@@H]1C[C@H](O)[C@@]1(C)C(=O)[C@H](O)C3=C(C)[C@@H](OC(=O)[C@H](O)[C@@H](NC(=O)OC(C)(C)C)c4ccccc4)C[C@@](O)([C@@H](OC(=O)c4ccccc4)[C@H]21)C3(C)C", "note": "[Docetaxel, docetaxel]", "values": [{"measurement": "Body weight at the start of drug administration (day 0)", "setting": "[1]; day 0, MDA-MB-231 xenograft mice", "result": 19.63, "unit": "g"}, {"measurement": "Body weight at the end of the test (day 35)", "setting": "[1]; day 35, docetaxel 5->15 mg/kg, SNB-101 20 mg/kg (as SN-38), i.v. Q1W x 6", "result": 20.25, "unit": "g"}, {"measurement": "average tumor volume", "setting": "MDA-MB-231; end of experiment (35 days after drug administration)", "result": "1,228.93 mm3"}, {"measurement": "TGI (%)", "setting": "MDA-MB-231; relative to vehicle, end of experiment (day 35)", "result": 27.6, "unit": "%"}, {"measurement": "average tumor volume", "setting": "A549; end of experiment (37 days after drug administration)", "result": 402.70, "unit": "mm3"}, {"measurement": "TGI (%)", "setting": "A549; relative to vehicle, end of experiment (day 37)", "result": 50.0, "unit": "%"}, {"measurement": "Body weight at the start of drug administration (day 0)", "setting": "[2]", "result": 17.93, "unit": "g"}]}, {"compound": "CCc1c2c(nc3ccc(OC(=O)N4CCC(N5CCCCC5)CC4)cc13)-c1cc3c(c(=O)n1C2)COC(=O)[C@]3(O)CC", "note": "[Irinotecan HCl, irinotecan hydrochloride]", "values": [{"measurement": "Tumor weight", "setting": "AsPC-1 cells", "result": "0.489 ± 0.101", "unit": "g"}, {"measurement": "Body weight, Day 0", "setting": "[3]; Day 0, i.v., nab-paclitaxel 5, irinotecan HCl 50, SNB-101 low dose 10/15.9 mg/kg/day (SN-38/irinotecan HCl)", "result": "21.3 ± 0.9", "unit": "g"}, {"measurement": "Body weight, Day 3", "setting": "[3]; Day 3, i.v., nab-paclitaxel 5, irinotecan HCl 50, SNB-101 low dose 10/15.9 mg/kg/day", "result": "22.1 ± 1.1", "unit": "g"}, {"measurement": "Body weight, Day 7", "setting": "[3]; Day 7, i.v., nab-paclitaxel 5, irinotecan HCl 50, SNB-101 low dose 10/15.9 mg/kg/day", "result": "22.8 ± 1.1", "unit": "g"}, {"measurement": "Body weight, Day 11", "setting": "[3]; Day 11, i.v., nab-paclitaxel 5, irinotecan HCl 50, SNB-101 low dose 10/15.9 mg/kg/day", "result": "22.9 ± 1.2", "unit": "g"}, {"measurement": "Body weight, Day 14", "setting": "[3]; Day 14, i.v., nab-paclitaxel 5, irinotecan HCl 50, SNB-101 low dose 10/15.9 mg/kg/day", "result": "23.4 ± 1.2", "unit": "g"}, {"measurement": "Body weight, Day 17", "setting": "[3]; Day 17, i.v., nab-paclitaxel 5, irinotecan HCl 50, SNB-101 low dose 10/15.9 mg/kg/day", "result": "22.9 ± 1.2", "unit": "g"}, {"measurement": "Body weight, Day 21", "setting": "[3]; Day 21, i.v., nab-paclitaxel 5, irinotecan HCl 50, SNB-101 low dose 10/15.9 mg/kg/day", "result": "22.6 ± 1.2", "unit": "g"}, {"measurement": "Body weight, Day 22", "setting": "[3]; Day 22 (autopsy), i.v., nab-paclitaxel 5, irinotecan HCl 50, SNB-101 low dose 10/15.9 mg/kg/day", "result": "21.7 ± 1.3", "unit": "g"}, {"measurement": "weight loss rate compared to G1 (vehicle group)", "setting": "[3]; day 22, nab-paclitaxel 5, irinotecan HCl 50, SNB-101 low dose 10/15.9 mg/kg/day", "result": 10.0, "unit": "%"}]}, {"compound": "Bevacizumab: monoclonal antibody and target anticancer drug (trade name Avastin)", "values": [{"measurement": "Tumor volume (mm^3) Test start A (day 1)", "setting": "[4]; day 1, SNB-101 20/31.8 mg/kg venous, bevacizumab 5 mg/kg peritoneal, irinotecan 50 mg/kg venous, days 1, 4, 7", "result": "96.67 ± 14.79", "unit": "mm^3"}, {"measurement": "Tumor volume (mm^3) Test end B (day 28)", "setting": "[4]; day 28, SNB-101 20/31.8 mg/kg venous, bevacizumab 5 mg/kg peritoneal, irinotecan 50 mg/kg venous, days 1, 4, 7", "result": "709.38 ± 266.87", "unit": "mm^3"}, {"measurement": "Tumor Volume Change (mm^3) [B − A]", "setting": "[4]; day 28 minus day 1, SNB-101 20/31.8, bevacizumab 5, irinotecan 50 mg/kg", "result": "612.71 ± 259.64", "unit": "mm^3"}]}]}
